These results are taken from patent publication US20070238762A1, “Use of Antagonists of Hepatic Sympathetic Nerve Activity” (DiaMedica Inc., priority 2003, published 2007).

For assay [1], the system named is Sprague Dawley rats. In words: Rapid insulin sensitivity test (RIST) following 24 hour fast. In kind it is in vivo, rat. The settings on record: male rats fasted 24 hours; constant i.v. infusion of phentolamine; FIG. 3.
From the text: HISS-dependent and HISS-independent insulin action can be most readily quantitated using the rapid insulin sensitivity test (RIST) which is a transient euglycemic clamp in response to a bolus administration of insulin. […] The RIST method uses variable glucose infusion rates to maintain the blood glucose level constant. The amount of glucose required to be administered in order to maintain the glycemic baseline is the index of insulin sensitivity and is referred to as the RIST index. The RIST index produced by this procedure consists of a HISS-dependent component and a HISS-independent component that can be readily differentiated by testing in the control fed state and then repeating the test after blockade of HISS release by any of a number of means including surgical denervation of the liver, blockade of hepatic muscarinic receptors, blockade of hepatic nitric oxide production, or blockade of hepatic cyclooxygenase. […] Blockade of HISS release results in HDIR. […] In order to determine whether HISS played a role in controlling glycogenolysis in response to acute trauma, fully anesthetized, fed, male, Sprague Dawley rats were prepared surgically according to the standard animal preparation used to conduct a rapid insulin sensitivity test (RIST) (Lautt et al., 1998). […] Blood was then withdrawn at a rate of 0.5 ml/min to decrease arterial pressure to 50 mm Hg. […]
The subject of assay [2] is Sprague Dawley rats. Put plainly: Rapid insulin sensitivity test (RIST) following 18 hour fast. In kind it is in vivo, rat. The settings on record: male rats fasted 18 hours; bolus 600 μg/kg ipv phentolamine; FIG. 4. How it is done:
Blockade of HISS release results in HDIR.
Male, Sprague Dawley rats were fed normal rat pellets and then fasted for a 18-hour period (with free access to water) prior to administration of pentobarbital sodium anesthesia and standard RIST methodology surgical preparation as described in Example One.
Following fasting, the animals were administered a bolus dose of 600 μg/kg ipv of phentolamine or a bolus dose of 600 μg/kg ipv of phentolamine and 5 μg/kg ipv of arecoline.

On to `Cc1ccc(N(CC2=NCCN2)c2cccc(O)c2)cc1` [phentolamine], for which the “insulin action (RIST)” value was “significantly restored toward normal levels” in the assay with Sprague Dawley rats [1] and “restoration of insulin action” in the assay on Sprague Dawley rats [2].
